Measured values from PMC4151520 (Journal of medicinal chemistry, 2011).
Blank lines part the entries; values can stand above or below the molecule they belong to.

Legend:
[1] = room temperature, 2 weeks
[2] = biological target: hLRH-1 LBD alone (no lipid added) (Homo sapiens, UniProt O00482); test: Native gel; type: binding; conditions: doses up to 100 µM
[3] = Solubility; type: physicochemical
[4] = biological target: mouse SF-1 (Mus musculus, UniProt P33242); test: RT-qPCR of endogenous target genes in HEK293 cells stably expressing SF-1; type: cell-based; conditions: 10 µM, 24 h, relative to DMSO
Sequence of mouse SF-1 (P33242 whole entry): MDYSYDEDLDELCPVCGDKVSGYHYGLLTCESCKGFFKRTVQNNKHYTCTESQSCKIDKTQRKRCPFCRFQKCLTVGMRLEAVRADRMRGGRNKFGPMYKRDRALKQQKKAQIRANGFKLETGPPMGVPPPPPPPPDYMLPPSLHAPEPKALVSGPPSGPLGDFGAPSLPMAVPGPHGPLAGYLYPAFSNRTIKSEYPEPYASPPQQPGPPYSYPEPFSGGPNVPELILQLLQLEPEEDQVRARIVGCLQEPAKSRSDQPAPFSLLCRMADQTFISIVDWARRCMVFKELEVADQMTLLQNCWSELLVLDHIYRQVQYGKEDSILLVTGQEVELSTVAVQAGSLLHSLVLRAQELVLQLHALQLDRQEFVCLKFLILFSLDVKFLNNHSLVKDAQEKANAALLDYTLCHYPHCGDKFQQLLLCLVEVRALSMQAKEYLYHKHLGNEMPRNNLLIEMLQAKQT

[5] = biological target: hLRH-1 (Homo sapiens, UniProt O00482); test: RT-qPCR of endogenous target genes in HEK293 cells stably expressing hLRH-1; type: cell-based; conditions: 10 µM, 24 h
Sequence of hLRH-1 (O00482 whole entry): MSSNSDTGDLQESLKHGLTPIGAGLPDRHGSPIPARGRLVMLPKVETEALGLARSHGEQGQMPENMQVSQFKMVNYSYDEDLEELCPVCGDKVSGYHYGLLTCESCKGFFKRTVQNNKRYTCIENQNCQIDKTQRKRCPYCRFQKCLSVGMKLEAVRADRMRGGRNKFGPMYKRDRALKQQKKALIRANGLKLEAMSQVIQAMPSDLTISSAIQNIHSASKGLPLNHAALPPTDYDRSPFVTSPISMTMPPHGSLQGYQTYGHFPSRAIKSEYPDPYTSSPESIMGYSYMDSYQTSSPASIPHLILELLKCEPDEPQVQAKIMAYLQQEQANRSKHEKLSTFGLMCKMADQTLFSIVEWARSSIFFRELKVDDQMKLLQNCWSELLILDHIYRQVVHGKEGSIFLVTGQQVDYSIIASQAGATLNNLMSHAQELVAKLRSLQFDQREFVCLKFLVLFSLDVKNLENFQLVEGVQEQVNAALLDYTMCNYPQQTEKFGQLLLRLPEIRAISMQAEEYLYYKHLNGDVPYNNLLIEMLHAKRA

[6] = test system: LRH-1; conditions: cited from earlier work
[7] = test system: H295R cell line; conditions: cited from earlier work
[8] = test system: SW-13 cell line; conditions: cited from earlier work
[9] = test system: SF-1; conditions: read-out: IC50 inverse agonist of SF-1; cited from earlier work
[10] = biological target: human LRH-1 ligand binding domain, labeled with biotin (human, UniProt O00482 300-541, biotin (site not stated)); test: FRET or BRET
Sequence of human LRH-1 ligand binding domain, labeled with biotin (O00482 300-541): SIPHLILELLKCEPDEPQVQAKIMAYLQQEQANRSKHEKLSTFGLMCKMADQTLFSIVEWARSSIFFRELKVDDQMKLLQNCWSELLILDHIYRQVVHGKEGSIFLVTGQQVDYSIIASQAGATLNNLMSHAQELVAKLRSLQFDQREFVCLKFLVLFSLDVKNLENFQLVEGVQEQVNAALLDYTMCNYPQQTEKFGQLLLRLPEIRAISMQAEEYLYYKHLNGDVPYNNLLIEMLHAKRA

Sequence of hLRH-1 LBD alone (no lipid added) (O00482 300-539 limits assumed): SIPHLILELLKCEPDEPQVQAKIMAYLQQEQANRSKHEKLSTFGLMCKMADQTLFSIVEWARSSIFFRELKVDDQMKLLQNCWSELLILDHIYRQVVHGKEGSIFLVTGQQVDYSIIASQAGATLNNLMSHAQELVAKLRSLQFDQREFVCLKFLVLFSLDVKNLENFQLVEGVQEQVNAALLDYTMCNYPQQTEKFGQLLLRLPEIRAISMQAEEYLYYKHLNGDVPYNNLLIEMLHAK

Molecule: C=C(c1ccccc1)[C@@]12CCC[C@@H]1CC(CCCCCC)=C2CCCO (racemic) [Compound 18s, rac-(1R,5R)-3-Hexyl-1-(phenylvinyl)-2-(propan-3-ol)-bicyclo[3.-3.0]oct-2-ene]
- shift in hLRH-1 LBD native PAGE migration [2]: can consistently shift hLRH-1 LBD migration in this native gel assay, albeit with reduced potency as compared to 24-exo

Molecule: C=C(c1ccccc1)[C@@]12CC[C@@H](O)[C@@H]1CC(CCCCCC)=C2c1ccccc1 (racemic) [Compound 24-exo, rac-(1R,5R,6R)-3-Hexyl-6-hydroxy-2-phenyl-1-(phenylvinyl)-bicyclo[3.3.0]oct-2-ene]
- SF-1-mediated transcription of endogenous SHP, StAR, G0S2 and MeOX1 target genes [4]: significantly activate
- solubility, in words [3]: reasonable solubility in polar solvents

Molecule: CCCCCCCOc1ccc(O)cc1 [Compound 8, p-heptyloxyphenol]
- activity against LRH-1 [6]: no activity
- proliferation of H295R [7]: inhibit proliferation
- proliferation of SW-13 (SF-1 negative) [8]: had the same effect

Molecule: CCOC(=O)C(C)Oc1cccc2c(=O)n(CC(=O)Nc3ccc(OC)cc3)ccc12 (centres unmarked) [Compound 9]
- IC50 [9]: 200 nM
- doxycycline (DOX) induced proliferation of H295R ([7]; 10 µM): modestly suppressed
- effect on SW-13 (SF-1 negative) ([8]; 10 µM): little effect

B1: biotin-labeled peptide derived from TIF-2 amino acids 737-757 (peptide)
peptide: QEPVSPKKKENALLRYLLDKDDTKD
HELM: PEPTIDE1{[O=C1N[C@H]2[C@H](CS[C@H]2CCCCC(=O)[*:2])N1].Q.E.P.V.S.P.K.K.K.E.N.A.L.L.R.Y.L.L.D.K.D.D.T.K.D.[am]}$$$$V2.0
SMILES: CC(C)C[C@H](NC(=O)[C@H](C)NC(=O)[C@H](CC(N)=O)NC(=O)[C@H](CCC(=O)O)NC(=O)[C@H](CCCCN)NC(=O)[C@H](CCCCN)NC(=O)[C@H](CCCCN)NC(=O)[C@@H]1CCCN1C(=O)[C@H](CO)NC(=O)[C@@H](NC(=O)[C@@H]1CCCN1C(=O)[C@H](CCC(=O)O)NC(=O)[C@H](CCC(N)=O)NC(=O)CCCC[C@@H]1SC[C@@H]2NC(=O)N[C@@H]21)C(C)C)C(=O)N[C@@H](CC(C)C)C(=O)N[C@@H](CCCNC(=N)N)C(=O)N[C@@H](Cc1ccc(O)cc1)C(=O)N[C@@H](CC(C)C)C(=O)N[C@@H](CC(C)C)C(=O)N[C@@H](CC(=O)O)C(=O)N[C@@H](CCCCN)C(=O)N[C@@H](CC(=O)O)C(=O)N[C@@H](CC(=O)O)C(=O)N[C@H](C(=O)N[C@@H](CCCCN)C(=O)N[C@@H](CC(=O)O)C(N)=O)[C@@H](C)O
- binding result [10]: binds

Now from value to molecule, other results behind:

- stability in CDCl3 in the presence of daylight [1]: stable
Molecule: C=C(c1ccccc1)[C@@]12CCC[C@@H]1CC(CCCCCC)=C2c1ccccc1 (racemic) [Compound 18a, rac-(1R,5R)-3-Hexyl-2-phenyl-1-(1-phenylvinyl)-bicyclo[3.3.0]oc-t-2-ene]

- solubility, in words [3]: very poor solubility in aqueous media
Molecule: C=C(CCCC)[C@@]12CCC[C@@H]1CC(CCCCCC)=C2c1ccccc1 (racemic) [Compound 18j, rac-(1R,5R)-1-(Hex-1-en-2-yl)-3-hexyl-2-phenyl-bicyclo[3.3.0]oct-2-ene]
- shift in hLRH-1 LBD native PAGE migration [2]: does not appear competent to shift hLRH-1 LBD migration

- SF-1-mediated transcription of endogenous SHP, StAR, G0S2 and MeOX1 target genes [4]: significantly activate
- LRH-1 transcription of the SHP and MeOx1 genes [5]: failed to activate
- LRH-1 transcription of the StAR and G0S2 genes [5]: activated
- solubility, in words [3]: improved solubility
Molecule: C=C(c1ccccc1)[C@@]12CN(C)C[C@@H]1CC(CCCCCC)=C2c1ccccc1 (racemic) [Compound 20a]
